Target: Lethal factor protease (Bacillus anthracis, UniProt P15917)
Assay: biochemical

Sequence of Lethal factor protease (P15917 34-809 limits assumed): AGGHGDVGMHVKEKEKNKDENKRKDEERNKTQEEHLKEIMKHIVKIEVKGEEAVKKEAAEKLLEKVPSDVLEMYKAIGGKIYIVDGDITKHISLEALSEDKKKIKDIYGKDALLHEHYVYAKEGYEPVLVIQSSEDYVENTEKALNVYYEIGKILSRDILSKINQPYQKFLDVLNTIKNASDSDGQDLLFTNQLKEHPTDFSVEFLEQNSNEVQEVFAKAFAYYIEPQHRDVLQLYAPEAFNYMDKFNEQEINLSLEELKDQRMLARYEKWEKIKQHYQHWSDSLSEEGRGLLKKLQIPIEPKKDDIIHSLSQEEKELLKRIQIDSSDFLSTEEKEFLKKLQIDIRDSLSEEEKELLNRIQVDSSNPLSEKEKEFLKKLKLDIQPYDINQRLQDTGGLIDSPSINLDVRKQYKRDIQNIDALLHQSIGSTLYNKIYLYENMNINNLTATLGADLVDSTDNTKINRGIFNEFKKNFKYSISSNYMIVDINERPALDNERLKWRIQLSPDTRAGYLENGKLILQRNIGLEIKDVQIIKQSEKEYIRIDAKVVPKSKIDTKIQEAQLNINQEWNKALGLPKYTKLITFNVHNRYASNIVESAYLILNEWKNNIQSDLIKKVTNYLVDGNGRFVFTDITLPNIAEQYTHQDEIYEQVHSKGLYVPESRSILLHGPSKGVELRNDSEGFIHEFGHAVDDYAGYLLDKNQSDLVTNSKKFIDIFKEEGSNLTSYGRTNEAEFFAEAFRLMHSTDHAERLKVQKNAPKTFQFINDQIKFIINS

| SMILES | Ki |
| --- | --- |
| Cc1cc(N[C@H](COC(C)(C)C)C(=O)NO)cc(C)c1F [Compound 167484, (R)-3-tert-Butoxy-2-(4-fluoro-3,5-dimethyl-phenylamino)-N-hydroxy-propionamide] | 0.45 µM |
| Cc1cc(N[C@@H](C)C(=O)NO)ccc1F [Compound 167364, (S)-2-(4-Fluoro-3-methyl-phenylamino)-N-hydroxy-propionamide] | 87 µM |
| CCCCC(Nc1cccc(-c2ccccc2)c1)C(=O)NO (centres unmarked) [Compound 167202, 2-(Biphenyl-3-ylamino)-hexanoic acid hydroxyamide] | 236 µM |
| Cc1cc(N[C@H](CC(C)C)C(=O)NO)cc(C)c1F [Compound 167402, (R)-2-(4-Fluoro-3,5-dimethyl-phenylamino)-4-methyl-pentanoic acid hydroxyamide] | 0.67 µM |
| Cc1cc(N[C@H](CCCCN(Cc2cc(C)c(F)c(C)c2)Cc2cc(C)c(F)c(C)c2)C(=O)NO)ccc1F [Compound 167971, (R)-6-[Bis-(4-fluoro-3,5-dimethyl-benzyl)-amino]-2-(4-fluoro-3-methyl-phenylamino)-hexanoic acid hydroxyamide] | 5.2 µM |
| Cc1cc(N[C@@H](C(=O)NO)C(C)C)cc(C)c1F [Compound 167264, (R)-2-(4-Fluoro-3,5-dimethyl-phenylamino)-N-hydroxy-3-methyl-butyramide] | 3.1 µM |
| CCCCC(Nc1cccc(OC)c1)C(=O)NO (centres unmarked) [Compound 167276, 2-(3-Methoxy-phenylamino)-hexanoic acid hydroxyamide] | 140 µM |
| CCCCC(Nc1cccc(CC)c1)C(=O)NO (centres unmarked) [Compound 167201, 2-(3-Ethyl-phenylamino)-hexanoic acid hydroxyamide] | 89.8 µM |
| Cc1cc(N[C@H](C)C(=O)NO)cc(C)c1F [Compound 167497, (R)-2-(4-Fluoro-3,5-dimethyl-phenylamino)-N-hydroxy-propionamide] | 0.47 µM |
| Cc1cc(N[C@H](CCCCNS(C)(=O)=O)C(=O)NO)cc(C)c1F [Compound 167531, (R)-2-(4-Fluoro-3,5-dimethyl-phenylamino)-6-methanesulfonylamino-hexanoic acid hydroxyamide] | 1 µM |
| Cc1cc(N[C@H](CCCCNCc2cc(C)c(OCc3ccccc3)c(C)c2)C(=O)NO)ccc1F [Compound 167969, (R)-6-(4-Benzyloxy-3,5-dimethyl-benzylamino)-2-(4-fluoro-3-methyl-phenylamino)-hexanoic acid hydroxyamide] | 0.27 µM |
